Laboratory results taken from patent publication US12479847B2 (DANA-FARBER CANCER INSTITUTE, INC., priority 2019, dated 2025).

Experiments:
[1] = target: T1, panel of 468 kinases (Homo sapiens, UniProt Q04759); test: KINOMEscan (ScanMAX) kinase profiling; format: binding; conditions: PRKCQ; 1 μM; read-out: % control
T1 construct: purchased KINOMEscan (ScanMAX) service

[2] = target: T2, panel of 468 kinases (Homo sapiens, UniProt Q6XUX3); test: KINOMEscan (ScanMAX) kinase profiling; format: binding; conditions: RIPK5; 1 μM; read-out: % control
T2 construct: purchased KINOMEscan (ScanMAX) service
T2 sequence (Q6XUX3 1-929): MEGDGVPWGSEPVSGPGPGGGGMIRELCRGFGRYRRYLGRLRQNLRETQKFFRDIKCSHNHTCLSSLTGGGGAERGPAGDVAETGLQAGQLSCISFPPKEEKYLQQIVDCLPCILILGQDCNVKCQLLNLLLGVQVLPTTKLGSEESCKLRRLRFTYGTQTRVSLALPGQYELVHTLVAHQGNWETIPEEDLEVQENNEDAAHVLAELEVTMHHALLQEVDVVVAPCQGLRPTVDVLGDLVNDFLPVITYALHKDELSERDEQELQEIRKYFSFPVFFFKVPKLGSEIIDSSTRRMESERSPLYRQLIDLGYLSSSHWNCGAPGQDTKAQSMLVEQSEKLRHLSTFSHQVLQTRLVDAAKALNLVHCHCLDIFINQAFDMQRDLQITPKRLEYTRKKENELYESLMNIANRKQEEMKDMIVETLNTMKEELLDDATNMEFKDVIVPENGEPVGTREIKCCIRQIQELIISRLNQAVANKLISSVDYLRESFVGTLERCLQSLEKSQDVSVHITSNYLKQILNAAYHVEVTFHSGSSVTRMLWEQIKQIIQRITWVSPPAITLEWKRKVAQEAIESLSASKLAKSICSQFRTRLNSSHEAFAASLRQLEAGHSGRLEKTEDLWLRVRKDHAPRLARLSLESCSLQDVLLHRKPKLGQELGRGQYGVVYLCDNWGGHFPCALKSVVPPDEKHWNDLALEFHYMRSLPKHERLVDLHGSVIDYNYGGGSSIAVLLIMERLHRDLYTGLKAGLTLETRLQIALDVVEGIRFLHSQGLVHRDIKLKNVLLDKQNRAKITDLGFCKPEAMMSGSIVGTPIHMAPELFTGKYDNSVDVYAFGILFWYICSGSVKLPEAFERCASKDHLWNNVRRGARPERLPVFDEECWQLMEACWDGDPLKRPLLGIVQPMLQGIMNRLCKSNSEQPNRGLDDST

[3] = target: T3, panel of 468 kinases (Homo sapiens, UniProt P07949, V804M); test: KINOMEscan (ScanMAX) kinase profiling; format: binding; conditions: RET(V804M); 1 μM; read-out: % control
T3 construct: purchased KINOMEscan (ScanMAX) service
T3 sequence (P07949 29-1114 V804M): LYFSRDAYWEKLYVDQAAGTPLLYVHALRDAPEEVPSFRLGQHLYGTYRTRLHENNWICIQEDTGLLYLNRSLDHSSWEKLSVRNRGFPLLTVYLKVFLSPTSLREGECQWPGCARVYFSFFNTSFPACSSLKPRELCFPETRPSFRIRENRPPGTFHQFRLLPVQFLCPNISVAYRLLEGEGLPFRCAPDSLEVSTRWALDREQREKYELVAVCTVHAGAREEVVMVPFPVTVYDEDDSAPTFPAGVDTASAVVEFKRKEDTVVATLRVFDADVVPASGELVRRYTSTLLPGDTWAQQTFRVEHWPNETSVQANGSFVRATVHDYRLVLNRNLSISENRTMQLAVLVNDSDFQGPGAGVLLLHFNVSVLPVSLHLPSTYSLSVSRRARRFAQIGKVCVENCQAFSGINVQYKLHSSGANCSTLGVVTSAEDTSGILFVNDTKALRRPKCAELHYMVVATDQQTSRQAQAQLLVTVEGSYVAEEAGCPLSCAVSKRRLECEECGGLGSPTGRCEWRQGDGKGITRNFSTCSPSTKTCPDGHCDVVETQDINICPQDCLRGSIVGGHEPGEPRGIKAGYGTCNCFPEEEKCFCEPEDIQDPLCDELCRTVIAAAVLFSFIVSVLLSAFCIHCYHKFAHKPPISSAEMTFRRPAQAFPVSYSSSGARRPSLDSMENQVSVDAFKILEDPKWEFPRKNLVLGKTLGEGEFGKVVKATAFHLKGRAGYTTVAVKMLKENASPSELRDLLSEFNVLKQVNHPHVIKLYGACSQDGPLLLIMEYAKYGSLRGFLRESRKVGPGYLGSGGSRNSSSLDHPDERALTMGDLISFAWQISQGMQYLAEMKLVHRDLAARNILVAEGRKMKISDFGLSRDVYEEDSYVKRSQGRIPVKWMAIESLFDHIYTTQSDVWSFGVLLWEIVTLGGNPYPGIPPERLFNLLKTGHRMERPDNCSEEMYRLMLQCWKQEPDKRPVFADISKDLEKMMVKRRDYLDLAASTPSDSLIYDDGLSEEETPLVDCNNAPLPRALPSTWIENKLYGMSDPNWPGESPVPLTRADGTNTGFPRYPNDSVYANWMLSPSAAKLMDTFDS

[4] = target: T4, wild-type LRKK2 (Mus musculus, UniProt Q5S006); test: LRRK2 immunoblot, phosphorylation of Ser935, NIH-3T3 cell lysates; format: cell-based; conditions: FIG. 1
T4 construct: endogenous in cells; host or cells: NIH-3T3
T4 sequence (Q5S006 whole entry): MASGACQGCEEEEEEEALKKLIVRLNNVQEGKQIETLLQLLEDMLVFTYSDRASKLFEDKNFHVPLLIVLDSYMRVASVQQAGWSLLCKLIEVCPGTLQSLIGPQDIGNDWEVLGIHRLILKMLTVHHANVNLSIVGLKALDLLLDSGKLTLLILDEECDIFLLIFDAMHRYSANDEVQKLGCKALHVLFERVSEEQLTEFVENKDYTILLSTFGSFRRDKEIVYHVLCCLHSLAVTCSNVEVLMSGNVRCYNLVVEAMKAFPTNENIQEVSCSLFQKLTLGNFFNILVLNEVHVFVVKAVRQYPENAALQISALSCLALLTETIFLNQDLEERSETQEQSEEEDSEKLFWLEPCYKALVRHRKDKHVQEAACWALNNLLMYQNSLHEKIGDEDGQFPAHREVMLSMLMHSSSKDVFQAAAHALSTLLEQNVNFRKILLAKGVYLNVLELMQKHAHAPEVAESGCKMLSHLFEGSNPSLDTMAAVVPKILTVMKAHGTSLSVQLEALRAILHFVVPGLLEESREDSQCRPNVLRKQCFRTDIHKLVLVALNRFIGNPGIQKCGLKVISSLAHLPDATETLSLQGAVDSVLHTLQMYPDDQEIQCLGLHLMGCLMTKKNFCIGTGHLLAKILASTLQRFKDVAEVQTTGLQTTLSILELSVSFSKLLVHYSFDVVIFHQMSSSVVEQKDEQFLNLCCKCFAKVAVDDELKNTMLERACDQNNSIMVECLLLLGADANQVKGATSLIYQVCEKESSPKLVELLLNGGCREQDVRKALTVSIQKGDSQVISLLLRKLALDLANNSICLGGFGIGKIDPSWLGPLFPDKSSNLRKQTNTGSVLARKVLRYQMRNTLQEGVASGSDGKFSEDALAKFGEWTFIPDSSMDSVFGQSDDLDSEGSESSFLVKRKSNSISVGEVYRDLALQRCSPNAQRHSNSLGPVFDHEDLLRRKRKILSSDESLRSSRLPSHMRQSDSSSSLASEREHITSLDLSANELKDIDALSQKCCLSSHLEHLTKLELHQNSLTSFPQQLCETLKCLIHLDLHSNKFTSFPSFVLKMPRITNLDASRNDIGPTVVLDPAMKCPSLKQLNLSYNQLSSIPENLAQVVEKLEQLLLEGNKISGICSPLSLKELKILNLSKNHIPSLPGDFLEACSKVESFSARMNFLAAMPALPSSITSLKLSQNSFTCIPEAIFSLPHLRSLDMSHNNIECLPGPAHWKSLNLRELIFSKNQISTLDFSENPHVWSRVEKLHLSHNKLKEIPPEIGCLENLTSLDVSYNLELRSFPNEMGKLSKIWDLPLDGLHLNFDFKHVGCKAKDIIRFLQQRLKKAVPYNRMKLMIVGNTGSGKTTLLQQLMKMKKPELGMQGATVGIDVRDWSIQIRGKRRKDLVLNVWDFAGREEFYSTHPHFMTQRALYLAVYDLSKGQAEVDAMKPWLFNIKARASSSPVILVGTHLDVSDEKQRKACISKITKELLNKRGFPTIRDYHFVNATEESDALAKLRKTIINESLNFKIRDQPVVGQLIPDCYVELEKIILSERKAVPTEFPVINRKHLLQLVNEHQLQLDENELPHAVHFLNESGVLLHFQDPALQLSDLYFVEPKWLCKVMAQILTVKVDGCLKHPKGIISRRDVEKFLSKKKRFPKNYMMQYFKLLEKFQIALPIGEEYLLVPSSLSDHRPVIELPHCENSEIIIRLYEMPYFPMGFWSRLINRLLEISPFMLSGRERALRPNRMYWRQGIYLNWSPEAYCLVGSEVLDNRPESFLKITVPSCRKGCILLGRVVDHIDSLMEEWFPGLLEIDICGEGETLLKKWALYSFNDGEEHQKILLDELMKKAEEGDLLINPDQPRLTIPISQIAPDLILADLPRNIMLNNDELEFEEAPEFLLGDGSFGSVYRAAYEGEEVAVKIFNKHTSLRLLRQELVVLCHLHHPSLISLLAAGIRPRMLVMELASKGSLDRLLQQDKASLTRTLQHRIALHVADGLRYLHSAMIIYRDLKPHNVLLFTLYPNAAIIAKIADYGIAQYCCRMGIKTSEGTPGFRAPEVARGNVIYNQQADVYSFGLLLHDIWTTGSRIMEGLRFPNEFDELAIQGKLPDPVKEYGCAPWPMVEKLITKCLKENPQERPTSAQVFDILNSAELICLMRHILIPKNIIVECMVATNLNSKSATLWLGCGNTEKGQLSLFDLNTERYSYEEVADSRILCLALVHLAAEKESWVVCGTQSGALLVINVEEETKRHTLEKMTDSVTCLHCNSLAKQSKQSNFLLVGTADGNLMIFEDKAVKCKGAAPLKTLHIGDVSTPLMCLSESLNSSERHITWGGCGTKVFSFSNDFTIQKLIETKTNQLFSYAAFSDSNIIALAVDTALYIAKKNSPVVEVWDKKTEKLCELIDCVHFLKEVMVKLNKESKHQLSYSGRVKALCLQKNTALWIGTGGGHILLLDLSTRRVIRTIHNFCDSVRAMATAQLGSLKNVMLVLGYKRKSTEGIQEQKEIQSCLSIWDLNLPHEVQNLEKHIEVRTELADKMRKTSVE
Experimental: Cell lysates were extracted from the NIH-3T3 cell pellet using lysis buffer (40 mM Tris-HCl pH 8.0, 120 mM NaCl, 0.10% Nonidet™-P40) supplemented with protease inhibitors. Proteins in whole-cell lysates were separated by SDS-PAGE and transferred to an Amersham™ nitrocellulose membrane (Amersham, UK). Nitrocellulose membranes were blocked with 5% skim milk in phosphate-buffered saline containing Tween 20 and incubated with primary antibodies overnight at 4° C. The blots were then incubated with the appropriate horseradish peroxidase (HRP)-conjugated secondary antibodies and proteins were visualized by enhanced chemiluminescence, according to the manufacturer's protocol (Amersham™ Western blotting). Secondary antibodies, anti-rabbit IgG-HRP were purchased from Cell Signaling technology. Immunoblot film were scanned on a LAS500 scanner, and images were managed with Adobe Photoshop

T1 sequence (Q04759 whole entry): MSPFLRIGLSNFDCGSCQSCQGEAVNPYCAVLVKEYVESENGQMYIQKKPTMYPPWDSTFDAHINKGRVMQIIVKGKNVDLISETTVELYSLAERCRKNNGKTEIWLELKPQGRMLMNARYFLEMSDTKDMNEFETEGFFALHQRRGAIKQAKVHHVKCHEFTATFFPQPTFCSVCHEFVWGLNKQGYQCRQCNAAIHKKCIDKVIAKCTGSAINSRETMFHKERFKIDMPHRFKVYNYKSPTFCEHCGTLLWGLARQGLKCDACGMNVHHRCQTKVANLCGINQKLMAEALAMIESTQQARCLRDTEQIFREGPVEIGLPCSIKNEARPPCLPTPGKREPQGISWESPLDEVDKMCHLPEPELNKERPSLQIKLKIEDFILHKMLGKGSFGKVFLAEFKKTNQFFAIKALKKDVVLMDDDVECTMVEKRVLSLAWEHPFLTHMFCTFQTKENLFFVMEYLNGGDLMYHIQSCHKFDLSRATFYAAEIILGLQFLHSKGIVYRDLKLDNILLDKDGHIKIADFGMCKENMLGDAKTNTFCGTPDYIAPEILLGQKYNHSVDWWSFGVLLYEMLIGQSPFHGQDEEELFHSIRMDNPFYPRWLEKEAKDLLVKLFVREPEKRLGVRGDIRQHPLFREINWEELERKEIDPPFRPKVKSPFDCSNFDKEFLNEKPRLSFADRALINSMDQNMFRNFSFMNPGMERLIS

Structure (SMILES) | remaining binding at 1 µM [1] | remaining binding at 1 µM [2] | remaining binding at 1 µM [3] | inhibition of the phosphorylation of Ser935 in wild-type LRKK2 [4]
CNc1nc(Nc2ccc(S(=O)(=O)N3CCC(N4CCOCC4)CC3)cc2OC)nc2[nH]cc(Cl)c12 [Compound 12, 5-chloro-N2-(2-methoxy-4-((4-morpholinopiperidin-1-yl)sulfonyl)phenyl)-N4-methyl-7H-pyrrolo[2,3-d]pyrimidine-2,4-diamine] | 100% | 23% | 96% | 
CNc1nc(Nc2ccc(P3(=O)CCN(C4CCOCC4)CC3)cc2OC)nc2[nH]cc(Cl)c12 [Compound 77, 4-(4-((5-chloro-4-(methylamino)-7H-pyrrolo[2,3-d]pyrimidin-2-yl)amino)-3-methoxyphenyl)-1-(tetrahydro-2H-pyran-4-yl)-1,4-azaphosphinane 4-oxide] | 95% | 20% | 97% | inhibited the phosphorylation of Ser935 in wild-type LRKK2 with potency similar to known LRRK2 inhibitor LRRK2-IN-1
CNc1nc(Nc2ccc(C(=O)N3CCC(N4CCOCC4)CC3)c3c2OCO3)nc2[nH]cc(Cl)c12 [Compound 75, (7-((5-chloro-4-(methylamino)-7H-pyrrolo[2,3-d]pyrimidin-2-yl)amino)benzo[d][1,3]dioxol-4-yl)(4-morpholinopiperidin-1-yl)methanone] | 100% | 9.9% | 33% | 
